Ten molecules from patent US10214490B2, “Picolinamides as fungicides” (Dow AgroSciences LLC, priority 2016, dated 2019) can be followed below.

The structures appear in SMILES notation. Read-outs that look alike come from different tables or passages of the source.

What all share (assay type): in vivo
One assay has as its system Zymoseptoria tritici. The experiment in a line: Fungicidal activity: leaf blotch of wheat (SEPTTR), disease control on wheat seedlings. Conditions: for pest or weed control at 100 ppm / pest or weed control at 121.5 g/ha: Zymoseptoria tritici. As to the method: Technical grades of materials were dissolved in acetone, which were then mixed with nine volumes of water containing 110 ppm Triton X-100. The fungicide solutions were applied onto wheat seedlings using an automated booth sprayer to run-off. All sprayed plants were allowed to air dry prior to further handling. All fungicides were evaluated using the aforementioned method for their activity vs. all target diseases, unless stated otherwise. Wheat leaf blotch and brown rust activity were also evaluated using track spray applications, in which case the fungicides were formulated as EC formulations, containing 0.1% Trycol 5941 in the spray solutions. Wheat plants (variety Yuma) were grown from seed in a greenhouse in 50% mineral soil/50% soil-less Metro mix until the first leaf was fully emerged, with 7-10 seedlings per pot. These plants were inoculated with an aqueous spore suspension of Zymoseptoria tritici either prior to or after fungicide treatments. After inoculation the plants were kept in 100% relative humidity (one day in a dark dew chamber followed by two to three days in a lighted dew chamber at 20° C.) to permit spores to germinate and infect the leaf. The plants were then transferred to a greenhouse set at 20° C. for disease to develop. When disease symptoms were fully expressed on the 1st leaves of untreated plants, infection levels were assessed on a scale of 0 to 100 percent disease severity. Percent disease control was calculated using the ratio of disease severity on treated plants relative to untreated plants.

The next assay concerns Puccinia triticina. As to the kind of experiment: Fungicidal activity: wheat brown rust (PUCCRT), disease control on wheat seedlings. On the procedure: Technical grades of materials were dissolved in acetone, which were then mixed with nine volumes of water containing 110 ppm Triton X-100. The fungicide solutions were applied onto wheat seedlings using an automated booth sprayer to run-off. All sprayed plants were allowed to air dry prior to further handling. All fungicides were evaluated using the aforementioned method for their activity vs. all target diseases, unless stated otherwise. Wheat leaf blotch and brown rust activity were also evaluated using track spray applications, in which case the fungicides were formulated as EC formulations, containing 0.1% Trycol 5941 in the spray solutions. Wheat plants (variety Yuma) were grown from seed in a greenhouse in 50% mineral soil/50% soil-less Metro mix until the first leaf was fully emerged, with 7-10 seedlings per pot. These plants were inoculated with an aqueous spore suspension of Puccinia triticina either prior to or after fungicide treatments. After inoculation the plants were kept in a dark dew room at 22° C. with 100% relative humidity overnight to permit spores to germinate and infect the leaf. The plants were then transferred to a greenhouse set at 24° C. for disease to develop. Fungicide formulation, application and disease assessment followed the procedures as described in the Example A. Results of the evaluations are shown below in Table 4.

A further assay relates to Phakopsora pachyrhizi. The experiment in a line: Fungicidal activity: Asian soybean rust (PHAKPA), disease control on soybean seedlings. Conditions: High Volume at 25 ppm. As to the method:
Technical grades of materials were dissolved in acetone, which were then mixed with nine volumes of water containing 0.011% Tween 20. The fungicide solutions were applied onto soybean seedlings using an automated booth sprayer to run-off. All sprayed plants were allowed to air dry prior to further handling.
Soybean plants (variety Williams 82) were grown in soil-less Metro mix, with one plant per pot. Two weeks old seedlings were used for testing. Plants were inoculated either 3 days prior to or 1 day after fungicide treatments. Plants were incubated for 24 h in a dark dew room at 22° C. and 100% relative humidity then transferred to a growth room at 23° C. for disease to develop. Disease severity was assessed on the sprayed leaves.

The mark [1] stands for this setting: HV activity at 100 ppm, 3 Day Curative.
Where [2] appears, read: HV activity at 100 ppm, 1 Day Protectant.
[3] abbreviates: 24 h, LV activity at 121.5 g/H, 1 Day Protectant, read-out: SEPTTR 1DP disease control rating.
[4] abbreviates: 72 h, LV activity at 121.5 g/H, 3 Day Curative, read-out: SEPTTR 3DC disease control rating.
[5] abbreviates: Puccinia triticina, 24 h, LV activity at 121.5 g/H, 1 Day Protectant, read-out: PUCCRT 1DP disease control rating.
Where [6] appears, read: 24 h, 1 Day Protectant, read-out: PHAKPA 1DP disease control rating.
Setting [7] is: 72 h, 3 Day Curative, read-out: PHAKPA 3DC disease control rating.
The mark [8] stands for this setting: Puccinia triticina, 72 h, LV activity at 121.5 g/H, 3 Day Curative, read-out: PUCCRT 3DC disease control rating.
Where [9] appears, read: LV activity at 121.5 g/H, 3 Day Curative.

On to `COc1cc(F)ccc1[C@@H](Sc1ccccc1)[C@H](C)OC(=O)[C@H](C)NC(=O)c1nccc(OC)c1O` [Compound 40], for which the pest or weed control at 100 ppm is > 80% in the assay on Zymoseptoria tritici (24 h, HV activity at 100 ppm, 1 Day Protectant, read-out: SEPTTR 1DP disease control rating); > 80% in the assay on Zymoseptoria tritici (72 h, HV activity at 100 ppm, 3 Day Curative, read-out: SEPTTR 3DC disease control rating); > 80% in the assay on Puccinia triticina (Puccinia triticina, 24 h, HV activity at 100 ppm, 1 Day Protectant, read-out: PUCCRT 1DP disease control rating). Also, the “PUCCRT 3DC disease control rating” value in the assay on Puccinia triticina (setting [1]) is given as “A (>80)”.

For the molecule `COc1cc(F)ccc1[C@@H](Sc1ccccc1)[C@H](C)OC(=O)[C@H](C)NC(=O)c1nccc(OC)c1O` [Compound 57], the “SEPTTR 1DP disease control rating” value in the assay on Zymoseptoria tritici (setting [2]) was “B (≤80)”. The “SEPTTR 3DC disease control rating” value in the assay on Zymoseptoria tritici (setting [1]) is recorded as “A (>80)”. Also, the “PUCCRT 1DP disease control rating” value in the assay on Puccinia triticina (setting [2]) is given as “A (>80)”. For the same molecule, in the assay on Puccinia triticina (setting [1]), the “PUCCRT 3DC disease control rating” value was “D (≤0)”.

`COc1cc(F)ccc1[C@@H](Sc1ccccc1)[C@H](C)OC(=O)[C@H](C)NC(=O)c1nccc(OC)c1OC(C)=O` [Compound 59]: the pest or weed control at 121.5 g/ha in the assay with Zymoseptoria tritici (setting [3]) was ≤ 80%; with Zymoseptoria tritici (setting [4]) it was ≤ 80%; with Puccinia triticina (setting [5]), > 80%.

In the case of `COc1ccnc(C(=O)N[C@@H](C)C(=O)O[C@@H](C)[C@@H](c2ccccc2)S(=O)(=O)c2ccc(C)cc2)c1OC(C)=O` [Compound 66], the pest or weed control at 25 ppm with Phakopsora pachyrhizi (setting [6]) and in the assay with Phakopsora pachyrhizi (setting [7]) was ≤ 80% throughout. For the same molecule, the pest or weed control at 121.5 g/ha is > 80% with Zymoseptoria tritici (setting [3]), ≤ 80% in the assay with Zymoseptoria tritici (setting [4]), ≤ 80% with Puccinia triticina (setting [5]) and ≤ 80% in the assay on Puccinia triticina (setting [8]).

Consider `COc1ccnc(C(=O)N[C@@H](C)C(=O)O[C@@H](C)[C@@H](c2ccccc2)S(=O)(=O)c2ccc(C(F)(F)F)cn2)c1OC(C)=O` [Compound 71], for which the pest or weed control at 25 ppm in the assay on Phakopsora pachyrhizi (setting [6]) and with Phakopsora pachyrhizi (setting [7]) was ≤ 80% throughout. The pest or weed control at 121.5 g/ha was ≤ 80% with Zymoseptoria tritici (setting [3]), ≤ 80% in the assay with Zymoseptoria tritici (setting [4]), ≤ 0% in the assay with Puccinia triticina (setting [5]) and ≤ 80% with Puccinia triticina (setting [8]).

As for `COc1ccnc(C(=O)N[C@@H](C)C(=O)O[C@@H](C)[C@H](Sc2ccccc2)c2ccccc2)c1OC(=O)OC(=O)C(C)C` [Compound 79], the pest or weed control at 25 ppm in the assay on Phakopsora pachyrhizi (setting [6]) and in the assay with Phakopsora pachyrhizi (setting [7]) was ≤ 80% each time. For the same molecule, the pest or weed control at 121.5 g/ha with Zymoseptoria tritici (setting [3]) is > 80%; in the assay with Zymoseptoria tritici (setting [4]), > 80%; in the assay with Puccinia triticina (setting [5]), > 80%; with Puccinia triticina (setting [8]) it was ≤ 80%.

For `COc1ccnc(C(=O)N[C@@H](C)C(=O)O[C@@H](C)[C@H](Sc2ccccc2)c2ccccc2)c1OC(=O)OC(C)=O` [Compound 80], the pest or weed control at 25 ppm in the assay with Phakopsora pachyrhizi (setting [6]) and with Phakopsora pachyrhizi (setting [7]) was ≤ 80% in each case. Moreover, the pest or weed control at 121.5 g/ha is ≤ 80% in the assay with Zymoseptoria tritici (setting [3]), ≤ 80% in the assay with Zymoseptoria tritici (setting [4]), > 80% with Puccinia triticina (setting [5]) and ≤ 80% in the assay with Puccinia triticina (setting [8]).

As for `COc1ccnc(C(=O)N[C@@H](C)C(=O)O[C@@H](C)[C@H](Sc2ccc(F)cc2C)c2ccccc2)c1OC(C)=O` [Compound 83], in the assay with Zymoseptoria tritici (setting [9]), the “SEPTTR 3DC disease control rating” value is given as “D (≤0)”. The pest or weed control at 121.5 g/ha in the assay with Zymoseptoria tritici (setting [3]) was ≤ 80%; in the assay with Puccinia triticina (setting [8]), ≤ 0%.

As to `COc1cc(F)ccc1[C@@H](Sc1ccccc1)[C@H](C)OC(=O)[C@H](C)NC(=O)c1nccc(OC)c1OC(C)=O` [Compound 84], the “PUCCRT 3DC disease control rating” value in the assay on Puccinia triticina (setting [9]) is “B (≤80)”.

For the molecule `COc1ccnc(C(=O)N[C@@H](C)C(=O)O[C@@H](C)[C@H](Sc2ccccc2)c2ccc(F)cc2)c1OC(C)=O` [Compound 85], the pest or weed control at 25 ppm is ≤ 80% in the assay with Phakopsora pachyrhizi (setting [6]) and ≤ 0% with Phakopsora pachyrhizi (setting [7]). Besides, the “SEPTTR 1DP disease control rating” value in the assay on Zymoseptoria tritici (LV activity at 121.5 g/H, 1 Day Protectant) is “B (≤80)”. Moreover, the “SEPTTR 3DC disease control rating” value with Zymoseptoria tritici (setting [9]) was “D (≤0)”. The pest or weed control at 121.5 g/ha with Puccinia triticina (setting [8]) is ≤ 0%.
